Source: patent US12491170B2, “Stable treprostinil prodrugs” (United Therapeutics Corporation, priority 2020, dated 2025)
Read-outs that look alike come from different tables or passages of the source. Each block holds one molecule with its values, some of them ahead of it.

Tests used:
[1] = Stability in human subcutaneous skin homogenate; details: for AUC: human
[2] = dog
[3] = Stability in liver microsomes, rat
[4] = Stability in cryopreserved hepatocytes, rat; details: for AUC: rat
[5] = rat
[6] = Stability in liver microsomes, dog
[7] = Stability in cryopreserved hepatocytes, human; details: for AUC: human
[8] = Stability in cryopreserved hepatocytes, dog; details: for AUC: dog
[9] = Stability in liver microsomes, human; details: for AUC: human

Compound: CCCCCC(CCC1C(O)CC2Cc3c(cccc3OCC(=O)O)CC21)OC(N)=O (stereo not drawn) [XLII]
Trep Concentration 0 min [1]: 0 µM
Trep Concentration 30 min [1]: 0 µM
Trep Concentration 60 min [1]: 0 µM
Trep Concentration 120 min [1]: 0 µM
AUC [1]: 0.00 µmol·min/L
AUC [2]: 18.91 µmol·min/L
Trep Concentration 0 min [3]: 0.322 µM
Trep Concentration 10 min [3]: 0.296 µM
Trep Concentration 20 min [3]: 0.314 µM
Trep Concentration 30 min [3]: 0.308 µM
Trep Concentration 60 min [3]: 0.29 µM
Trep Concentration (μM) 0 min [4]: 0.33 µM
Trep Concentration (μM) 15 min [4]: 0.309 µM
Trep Concentration (μM) 30 min [4]: 0.299 µM
Trep Concentration (μM) 60 min [4]: 0.307 µM
Trep Concentration (μM) 120 min [4]: 0.3 µM
AUC [4]: 36.65 µmol·min/L
AUC [5]: 18.22 µmol·min/L
Trep Concentration 0 min [6]: 0.335 µM
Trep Concentration 10 min [6]: 0.312 µM
Trep Concentration 20 min [6]: 0.311 µM
Trep Concentration 30 min [6]: 0.308 µM
Trep Concentration 60 min [6]: 0.323 µM
Trep Concentration (μM) 0 min [7]: 0.297 µM
Trep Concentration (μM) 15 min [7]: 0.274 µM
Trep Concentration (μM) 30 min [7]: 0.298 µM
Trep Concentration (μM) 60 min [7]: 0.275 µM
Trep Concentration (μM) 120 min [7]: 0.217 µM
AUC [7]: 31.93 µmol·min/L
Trep Concentration (μM) 0 min [8]: 0.296 µM
Trep Concentration (μM) 15 min [8]: 0.242 µM
Trep Concentration (μM) 30 min [8]: 0.197 µM
Trep Concentration (μM) 60 min [8]: 0.155 µM
Trep Concentration (μM) 120 min [8]: 0.137 µM
AUC [8]: 21.37 µmol·min/L
Trep Concentration 0 min [9]: 0.361 µM
Trep Concentration 10 min [9]: 0.297 µM
Trep Concentration 20 min [9]: 0.293 µM
Trep Concentration 30 min [9]: 0.273 µM
Trep Concentration 60 min [9]: 0.219 µM
AUC [9]: 16.45 µmol·min/L

Compound: CCCCCC(CCC1C(O)CC2Cc3c(cccc3OCC(=O)O)CC21)OC (stereo not drawn) [XLV]
Trep Concentration 0 min [1]: 0 µM
Trep Concentration 30 min [1]: 0 µM
Trep Concentration 60 min [1]: 0 µM
Trep Concentration 120 min [1]: 0 µM
AUC [1]: 0.00 µmol·min/L
AUC [2]: 0.23 µmol·min/L
Trep Concentration 0 min [3]: 0 µM
Trep Concentration 10 min [3]: 0.00607 µM
Trep Concentration 20 min [3]: 0.00992 µM
Trep Concentration 30 min [3]: 0.0162 µM
Trep Concentration 60 min [3]: 0.023 µM
Trep Concentration (μM) 0 min [4]: 0 µM
Trep Concentration (μM) 15 min [4]: 0.00378 µM
Trep Concentration (μM) 30 min [4]: 0.00483 µM
Trep Concentration (μM) 60 min [4]: 0.00537 µM
Trep Concentration (μM) 120 min [4]: 0.00521 µM
AUC [4]: 0.56 µmol·min/L
AUC [5]: 0.83 µmol·min/L
Trep Concentration 0 min [6]: 0 µM
Trep Concentration 10 min [6]: 0 µM
Trep Concentration 20 min [6]: 0.00323 µM
Trep Concentration 30 min [6]: 0.00529 µM
Trep Concentration 60 min [6]: 0.00637 µM
Trep Concentration (μM) 0 min [7]: 0 µM
Trep Concentration (μM) 15 min [7]: 0.0417 µM
Trep Concentration (μM) 30 min [7]: 0.0533 µM
Trep Concentration (μM) 60 min [7]: 0.0724 µM
Trep Concentration (μM) 120 min [7]: 0.0734 µM
AUC [7]: 7.29 µmol·min/L
Trep Concentration (μM) 0 min [8]: 0 µM
Trep Concentration (μM) 15 min [8]: 0 µM
Trep Concentration (μM) 30 min [8]: 0 µM
Trep Concentration (μM) 60 min [8]: 0 µM
Trep Concentration (μM) 120 min [8]: 0 µM
AUC [8]: 0.00 µmol·min/L
Trep Concentration 0 min [9]: 0.00583 µM
Trep Concentration 10 min [9]: 0.104 µM
Trep Concentration 20 min [9]: 0.156 µM
Trep Concentration 30 min [9]: 0.21 µM
Trep Concentration 60 min [9]: 0.292 µM
AUC [9]: 11.21 µmol·min/L

Compound: CCCCCC(CCC1C(O)CC2Cc3c(cccc3OCC(=O)O)CC21)OC(=O)CC (stereo not drawn) [LV]
Trep Concentration 0 min [1]: 0.0045 µM
Trep Concentration 30 min [1]: 0.545 µM
Trep Concentration 60 min [1]: 0.741 µM
Trep Concentration 120 min [1]: 0.954 µM
AUC [1]: 78.38 µmol·min/L
AUC [2]: 53.25 µmol·min/L
Trep Concentration 0 min [3]: 0.26 µM
Trep Concentration 10 min [3]: 0.43 µM
Trep Concentration 20 min [3]: 0.525 µM
Trep Concentration 30 min [3]: 0.586 µM
Trep Concentration 60 min [3]: 0.553 µM
Trep Concentration (μM) 0 min [4]: 0.0159 µM
Trep Concentration (μM) 15 min [4]: 0.506 µM
Trep Concentration (μM) 30 min [4]: 0.48 µM
Trep Concentration (μM) 60 min [4]: 0.424 µM
Trep Concentration (μM) 120 min [4]: 0.391 µM
AUC [4]: 49.32 µmol·min/L
AUC [5]: 30.87 µmol·min/L
Trep Concentration 0 min [6]: 0.971 µM
Trep Concentration 10 min [6]: 0.961 µM
Trep Concentration 20 min [6]: 0.934 µM
Trep Concentration 30 min [6]: 0.915 µM
Trep Concentration 60 min [6]: 0.743 µM
Trep Concentration (μM) 0 min [7]: 0.113 µM
Trep Concentration (μM) 15 min [7]: 0.725 µM
Trep Concentration (μM) 30 min [7]: 0.654 µM
Trep Concentration (μM) 60 min [7]: 0.589 µM
Trep Concentration (μM) 120 min [7]: 0.527 µM
AUC [7]: 68.75 µmol·min/L
Trep Concentration (μM) 0 min [8]: 0.124 µM
Trep Concentration (μM) 30 min [8]: 0.698 µM
Trep Concentration (μM) 60 min [8]: 0.599 µM
Trep Concentration (μM) 120 min [8]: 0.53 µM
AUC [8]: 71.21 µmol·min/L
Trep Concentration 0 min [9]: 1.17 µM
Trep Concentration 10 min [9]: 1.01 µM
Trep Concentration 20 min [9]: 0.837 µM
Trep Concentration 30 min [9]: 0.736 µM
Trep Concentration 60 min [9]: 0.389 µM
AUC [9]: 44.88 µmol·min/L

Second part, the molecule after the results:

Trep Concentration 0 min [1]: 0 µM
Trep Concentration 30 min [1]: 0.857 µM
Trep Concentration 60 min [1]: 0.82 µM
Trep Concentration 120 min [1]: 0.929 µM
AUC [1]: 90.48 µmol·min/L
AUC [2]: 2.81 µmol·min/L
Trep Concentration 0 min [3]: 0.0254 µM
Trep Concentration 10 min [3]: 0.0305 µM
Trep Concentration 20 min [3]: 0.0389 µM
Trep Concentration 30 min [3]: 0.0458 µM
Trep Concentration 60 min [3]: 0.079 µM
Trep Concentration (μM) 0 min [4]: 0 µM
Trep Concentration (μM) 15 min [4]: 0.0876 µM
Trep Concentration (μM) 30 min [4]: 0.129 µM
Trep Concentration (μM) 60 min [4]: 0.169 µM
Trep Concentration (μM) 120 min [4]: 0.239 µM
AUC [4]: 18.99 µmol·min/L
AUC [5]: 2.92 µmol·min/L
Trep Concentration 0 min [6]: 0.0159 µM
Trep Concentration 10 min [6]: 0.0246 µM
Trep Concentration 20 min [6]: 0.0405 µM
Trep Concentration 30 min [6]: 0.0449 µM
Trep Concentration 60 min [6]: 0.0788 µM
Trep Concentration (μM) 0 min [7]: 0 µM
Trep Concentration (μM) 15 min [7]: 0.0481 µM
Trep Concentration (μM) 30 min [7]: 0.0749 µM
Trep Concentration (μM) 60 min [7]: 0.123 µM
Trep Concentration (μM) 120 min [7]: 0.194 µM
AUC [7]: 13.76 µmol·min/L
Trep Concentration (μM) 0 min [8]: 0 µM
Trep Concentration (μM) 15 min [8]: 0.0601 µM
Trep Concentration (μM) 30 min [8]: 0.0885 µM
Trep Concentration (μM) 60 min [8]: 0.127 µM
Trep Concentration (μM) 120 min [8]: 0.139 µM
AUC [8]: 12.78 µmol·min/L
Trep Concentration 0 min [9]: 0.0227 µM
Trep Concentration 10 min [9]: 0.0216 µM
Trep Concentration 20 min [9]: 0.0492 µM
Trep Concentration 30 min [9]: 0.0352 µM
Trep Concentration 60 min [9]: 0.0539 µM
AUC [9]: 2.33 µmol·min/L
Compound: CCCCCC(CCC1C(O)CC2Cc3c(cccc3OCC(=O)O)CC21)OC(=O)C(N)CCCCN (stereo not drawn) [XXXV]

Trep Concentration 0 min [1]: 0 µM
Trep Concentration 30 min [1]: 0 µM
Trep Concentration 60 min [1]: 0 µM
Trep Concentration 120 min [1]: 0 µM
AUC [1]: 0.00 µmol·min/L
AUC [2]: 5.10 µmol·min/L
Trep Concentration 0 min [3]: 0.0107 µM
Trep Concentration 10 min [3]: 0.0193 µM
Trep Concentration 20 min [3]: 0.0291 µM
Trep Concentration 30 min [3]: 0.0305 µM
Trep Concentration 60 min [3]: 0.0498 µM
Trep Concentration (μM) 0 min [4]: 0 µM
Trep Concentration (μM) 15 min [4]: 0.0753 µM
Trep Concentration (μM) 30 min [4]: 0.132 µM
Trep Concentration (μM) 60 min [4]: 0.18 µM
Trep Concentration (μM) 120 min [4]: 0.238 µM
AUC [4]: 19.34 µmol·min/L
AUC [5]: 1.90 µmol·min/L
Trep Concentration 0 min [6]: 0.0247 µM
Trep Concentration 10 min [6]: 0.0494 µM
Trep Concentration 20 min [6]: 0.0751 µM
Trep Concentration 30 min [6]: 0.0888 µM
Trep Concentration 60 min [6]: 0.13 µM
Trep Concentration (μM) 0 min [7]: 0 µM
Trep Concentration (μM) 15 min [7]: 0.0192 µM
Trep Concentration (μM) 30 min [7]: 0.0265 µM
Trep Concentration (μM) 60 min [7]: 0.0464 µM
Trep Concentration (μM) 120 min [7]: 0.0728 µM
AUC [7]: 5.16 µmol·min/L
Trep Concentration (μM) 0 min [8]: 0 µM
Trep Concentration (μM) 15 min [8]: 0.0287 µM
Trep Concentration (μM) 30 min [8]: 0.03796 µM
Trep Concentration (μM) 60 min [8]: 0.0584 µM
Trep Concentration (μM) 120 min [8]: 0.0754 µM
AUC [8]: 6.18 µmol·min/L
Trep Concentration 0 min [9]: 0 µM
Trep Concentration 10 min [9]: 0 µM
Trep Concentration 20 min [9]: 0 µM
Trep Concentration 30 min [9]: 0 µM
Trep Concentration 60 min [9]: 0 µM
AUC [9]: 0.00 µmol·min/L
Compound: CCCCCC(CCC1C(O)CC2Cc3c(cccc3OCC(=O)O)CC21)OC(=O)CCC(=O)N1CCOCC1 (stereo not drawn) [XXXIII]
